Like-named read-outs stand apart in the source and are kept apart here.

A short description of data set [1]: Hepatic first-pass effect / hepatic clearance rate (jugular vs pyloric vein AUC0-t) in inflamed rats. The format is in vivo, Sprague-Dawley rats. Particulars: inflamed rats (G5, n = 5), oral HLJDD; HCR% = 100×(AUC0−t pyloric vein − AUC0−t jugular vein)/AUC0−t pyloric vein. On the procedure:
(§1) For the PK-PD analysis, cannulas were implanted in each rat’s jugular vein (n = 22). To study the hepatic first-pass effect (HFPE), the jugular vein and the pyloric vein of each rat (n = 5) were cannulated according to the method described by Hye J. Chung et al. with slight modifications. Instead of the portal vein, the pyloric vein was cannulated to minimize the interference of blood flow in the portal vein [41]. The surgery was performed under anesthesia (3% chloral hydrate solution, intraperitoneal injection; 3.5 mL/kg) 5 days prior to the experiment. Rats with jugular vein intubation surgery were divided into four groups: a control group with HLJDD (G1, n = 6), aninflammatory group with HLJDD (G2, n = 6), aninflammatory group with physiological saline (G3, n = 5) and another inflammatory group with HLJDD (G4, n = 5). G1 and G2 were used for the pharmacokinetic study, while G3 and G4 were used for the pharmacodynamic study. Rats with jugular and pyloric vein cannulation for HFPE analysis were assigned to another inflammatory group with HLJDD (G5, n = 5).
The prepared HLJDD-EP solution was administered to the rats (G1, G2, G4 and G5) at 2 mL/100g body weight (crude material content: 3.5 g/kg) by oral gavage, and the G3 group was given the same volume of physiological saline. In the G1 and G2 groups, blood specimens (300 μL) were obtained before dosing and subsequently at 5 min, 10 min, 30 min, 1, 2, 4, 6, 8, 12, 24, 36 and 48 h after the oral administration of HLJDD-EP solution. In the G3 and G4 groups, blood samples (300 μL) were collected prior to dosing and followed at 10 min, 30 min, 1, 2, 4, 8, 24 and 48 h after drug administration. The rectal temperature of rats in the G3 and G4 groups was immediately monitored after each collection of blood. For the HFPE assay, blood specimens (150 μL) from both the jugular vein and the pyloric vein of the G5 rats were simultaneously taken before dosing and subsequently at 5 min, 10 min, 30 min, 1, 2, 4, 6, 8, 12, 24, 36 and 48 h after oral administration. Samples were collected in heparinized Eppendorf tubes and centrifuged at 3000 rpm for 15 min. The plasma was stored at -80°C until assay.
For the pharmacokinetic investigation and HFPE analysis, 100 μL aliquots of plasma were mixed with 5 μL of ascorbic acid (dissolved in physiological saline, w/v: 1 g/100 mL) and 200 μL of methanol (containing an internal standard stock solution with 80.0 ng/mL swertiamarin, 1.5 ng/mL corynoline and 33.0 ng/mL icariin), followed by vortexing and centrifuging at 15000 rpm for 20 min to remove the precipitate. The supernatant was dried with nitrogen at 40°C. […] The supernatant was analyzed using Agilent 1290 ultra-high performance liquid chromatography coupled with an Agilent 6490 Triple Quadrupole Mass Spectrometer (Agilent Technologies, Palo Alto, CA, USA).
Pharmacokinetic parameters of the determined compounds were processed by the non-compartmental method using Phoenix Winnonlin software (Pharsight Corporation, USA). […] The mean residence time (MRT) was determined as AUMC/AUC. The plasma half-life (HLλz), maximum plasma concentration (Cmax), the time to reach Cmax (Tmax) and other parameters following the administration of HLJDD were determined from the observed data. […] Concentrations of cytokines were analyzed by cytometric bead array software (FCAP Array version 3.0, BD Bioscience). All the data were expressed as the mean±standard deviation (SD). […]

Data set [2] in a line: Pharmacokinetics of HLJDD components in rat plasma after oral administration of HLJDD (LC-QqQ-MS, non-compartmental). The format is in vivo, Sprague-Dawley rats. Particulars: oral HLJDD extract; for AUC%Extrap / AUMClast / Cmax1 / Cmax2 / HLλz / Tmax1 / Tmax2 / AUC(0-inf) / AUC(0-t) / MRT last / CL/F / Vd/F: crude material 3.5 g/kg, plasma, n = 6; for mean AUClast, fold larger in the inflamed group than in the control group: inflamed vs normal rats; for AUC(0-inf) / AUC(0-t) / MRT last / CL/F / Vd/F: male, Sprague-Dawley, rat, po, 3.5 g/kg; for CL/F: read-out: CL/F (converted); for Vd/F: read-out: Vz/F. On the procedure:
The rats were acclimatized to the facilities for 5 days and screened via the continuous determination of the rectal temperature for two days. […] The control group G1 was injected with the same volume of physiological saline. The ethics committees of Cisco North Biotechnology Co., Ltd. (Beijing, China) and the China Academy of Chinese Medical Sciences (Beijing, China) approved the experimental protocol.
as §1
The prepared HLJDD-EP solution was administered to the rats (G1, G2, G4 and G5) at 2 mL/100g body weight (crude material content: 3.5 g/kg) by oral gavage, and the G3 group was given the same volume of physiological saline. […] The rectal temperature of rats in the G3 and G4 groups was immediately monitored after each collection of blood. […] Samples were collected in heparinized Eppendorf tubes and centrifuged at 3000 rpm for 15 min. The plasma was stored at -80°C until assay.
The supernatant was dried with nitrogen at 40°C. The residue was re-dissolved in 100 μL of methanol and centrifuged at 15000 rpm for 10 min.
Liquid chromatographic separations of the analytes were performed using a Thermo Scientific Hypersil GOLD column (50 mm× 2.1 mm, 1.9 μm). The mobile phase consisted of acetonitrile (solvent A) and 0.1% formic acid in water (solvent B). […] The flow rate was 0.3 mL/min. The injection volume was 2 μL. […] The optimized ESI source parameters were as follows: gas temperature, 200°C; gas flow, 14 L/min; nebulizer pressure, 20 psi; sheath gas temperature, 400°C; and sheath gas flow, 11 L/min. Analytes were quantitated by monitoring the precursor-product combination in the DMRM mode using ion polarity switching (flavonoids and alkaloids were determined in the positive mode, while iridoids were detected in the negative mode). To ensure the desired abundance of each compound, the CE values and other parameters were optimized and illustrated as follows: cycle time, 300 ms; positive capillary voltage, 3000 v; negative capillary voltage, 2000 v; positive nozzle voltage, 1500 v; negative nozzle voltage, 1000 v; Delta EMV(+), 200 v; Delta EMV(-), 200 v. The optimized mass transition ion pairs (m/z) for analytes and the detection of the conditions of the compounds are shown in S1 Table.
Pharmacokinetic parameters of the determined compounds were processed by the non-compartmental method using Phoenix Winnonlin software (Pharsight Corporation, USA). Linear trapezoidal integration was used to calculate areas under the concentration-time curves (AUC) and areas under the first moment curves (AUMC). The mean residence time (MRT) was determined as AUMC/AUC. The plasma half-life (HLλz), maximum plasma concentration (Cmax), the time to reach Cmax (Tmax) and other parameters following the administration of HLJDD were determined from the observed data. The HFPE was defined as HCR: HCR% = 100×(AUC0−t in the pyloric vein-AUC0−t in the jugular vein)/AUC0−t in the pyloric vein.

[3] abbreviates: in vivo, inflamed rats (group M).

Take `COC(=O)C1=CO[C@@H](O[C@@H]2O[C@H](CO[C@@H]3O[C@H](CO)[C@@H](O)[C@H](O)[C@H]3O)[C@@H](O)[C@H](O)[C@H]2O)[C@@H]2C(CO)=CC[C@H]12` [I3, genipin-1-gentiobioside]: in data set [1], the “hepatic clearance rate (HCR)” value is given as -156.6%.

As for `COc1cc(O)c2c(=O)cc(-c3ccccc3)oc2c1O[C@@H]1O[C@H](C(=O)O)[C@@H](O)[C@H](O)[C@H]1O` [F7, 5,8-dihyroxy-7-methoxy flavone-8-O-glucuronide], the “hepatic clearance rate (HCR)” value in data set [1] was “approximately zero”.

In the case of `O=C(O)[C@H]1O[C@@H](Oc2cc3oc(-c4ccccc4)cc(=O)c3c(O)c2O)[C@H](O)[C@@H](O)[C@@H]1O` [baicalin], in data set [2] (inflamed rats (group M)), the AUC%Extrap came out at 2.7±0.5%, the AUMClast was 175077.1±103375.1 h*h*ng/ml, the Cmax1 is 2420.9 ± 922.5 ng/mL and the Cmax2 was 1000.4 ± 298.1 ng/mL. In data set [2] (inflamed rats (group M)), the HLλz turned out to be 4.7 ± 1.1 h; the Tmax1 is 0.1 ± 0.04 h; the Tmax2 was found to be 9.3 ± 2.1 h; the area under the curve AUC(0-inf) – broadly, total exposure, with the tail of the curve extrapolated – is 16.8 ± 9.09 µg·h/mL. For the same compound, in data set [2] (inflamed rats (group M)), the AUC(0-t) (in general, exposure summed from dosing to a finite time, without extrapolation to infinity) is 15.7 ± 9.3 µg·h/mL; the MRT last (as a rule, the average time that molecules of a dose stay in the body) was determined as 10.1 ± 2.3 h; the CL/F was 8.7 L/h/kg; the Vd/F is 58.8 ± 25.2 L/kg. For the same compound, the “mean AUClast, fold larger in the inflamed group than in the control group” value (“mean AUClast, fold larger” below) in data set [2] stood at 2.0 fold. Besides, in data set [2] (normal rats (group B)), the AUC(0-inf) was determined as 8.13 ± 0.906 µg·h/mL, the AUC(0-t) is 7.88 ± 0.775 µg·h/mL, the MRT last worked out at 4.3 ± 0.3 h and the CL/F was 15.5 L/h/kg. In data set [2] (normal rats (group B)), the Vd/F turned out to be 39.6 ± 7.1 L/kg, the AUC%Extrap amounted to 2.9±2.3%, the AUMClast is 34124.1±4967.9 h*h*ng/ml and the Cmax1 stood at 1828.8 ± 737.4 ng/mL. For the same compound, in data set [2] (normal rats (group B)), the Cmax2 was determined as 1580.1 ± 202.4 ng/mL, the HLλz came out at 1.8 ± 0.4 h, the Tmax1 is 0.09 ± 0.03 h and the Tmax2 was found to be 4.3 ± 0.8 h.

As to `COc1ccc2cc3[n+](cc2c1OC)CCc1cc2c(cc1-3)OCO2` [berberine], in data set [2] (inflamed rats (group M)), the AUC%Extrap was found to be 10.7±7.0%, the AUMClast turned out to be 22.6±8.6 h*h*ng/ml, the Cmax1 is 0.5 ± 0.2 ng/mL and the Cmax2 amounted to 0.3 ± 0.3 ng/mL. Moreover, in data set [2] (inflamed rats (group M)), the HLλz came out at 9.1 ± 2.5 h, the Tmax1 came out at 1.0 ± 0.6 h, the Tmax2 was found to be 10.8 ± 2.7 h and the AUC(0-inf) stood at 0.0034 ± 0.0007 µg·h/mL. For the same compound, in data set [2] (inflamed rats (group M)), the AUC(0-t) stood at 0.0027 ± 0.0008 µg·h/mL and the MRT last turned out to be 8.4 ± 3.1 h. In addition, the “mean AUClast, fold larger” value in data set [2] came to 2.1 fold. Besides, in data set [2] (normal rats (group B)), the AUC(0-inf) was 0.0018 ± 0.0006 µg·h/mL, the AUC(0-t) was 0.0013 ± 0.0005 µg·h/mL, the MRT last worked out at 5.7 ± 3.5 h and the AUC%Extrap is recorded as 25.9±15.5%. Also, in data set [2] (normal rats (group B)), the AUMClast is recorded as 8.9±8.6 h*h*ng/ml, the Cmax1 was 0.4 ± 0.1 ng/mL, the Cmax2 was 0.1 ± 0.03 ng/mL and the HLλz came out at 6.3 ± 3.5 h. Besides, in data set [2] (normal rats (group B)), the Tmax1 was found to be 0.6 ± 0.4 h and the Tmax2 stood at 8.0 ± 2.2 h.

On to `COC(=O)C1=CO[C@@H](O[C@@H]2O[C@H](CO)[C@@H](O)[C@H](O)[C@H]2O)[C@@H]2C(CO)=CC[C@H]12` [geniposide], for which, in data set [2] (inflamed rats (group M)), the AUC%Extrap was 8.9±2.9%, the AUMClast is 1231.9±677.2 h*h*ng/ml, the Cmax1 was 223.2 ± 43.7 ng/mL and the HLλz amounted to 1.6 ± 0.7 h. Further, in data set [2] (inflamed rats (group M)), the Tmax1 was 0.8 ± 0.3 h. Moreover, the “mean AUClast, fold larger” value in data set [2] was 2.9 fold. Further, in data set [2] (setting [3]), the AUC(0-inf) was 0.696 ± 0.363 µg·h/mL, the AUC(0-t) came to 0.638 ± 0.323 µg·h/mL, the MRT last was found to be 1.9 ± 0.8 h and the CL/F is 225 L/h/kg. Also, the Vd/F in data set [2] (setting [3]) was 372 ± 86.7 L/kg. In addition, in data set [2] (in vivo, normal rats (group B)), the area under the curve AUC(0-inf) was 0.24 ± 0.0821 µg·h/mL, the AUC(0-t) was determined as 0.217 ± 0.0862 µg·h/mL, the MRT last amounted to 0.9 ± 0.1 h and the CL/F is 412 L/h/kg. The Vd/F in data set [2] (in vivo, normal rats (group B)) stood at 235 ± 94.2 L/kg. Further, in data set [2] (normal rats (group B)), the AUC%Extrap amounted to 11.5±1.5%, the AUMClast is reported as 192.5±74.8 h*h*ng/ml, the Cmax1 was determined as 171.6 ± 70.6 ng/mL and the HLλz was 0.6 ± 0.3 h. In data set [2] (normal rats (group B)), the Tmax1 was 0.7 ± 0.3 h.

These data come from paper PMC4900566, “Pharmacokinetic-Pharmacodynamic Analysis on Inflammation Rat Model after Oral Administration of Huang Lian Jie Du Decoction” (PLoS ONE, 2016).
